Laboratory results: patent publication US5512553A, “7-(substituted)-8-(substituted)-9-(substituted amino)-6-demethyl-6-deoxytetracyclines” (American Cyanamid Company, priority 1995, dated 1996)
Where a name gives a salt, the structure may show the parent alone. Read-outs that look alike come from different tables or passages of the source.

Columns and labels:
[1] = system: Staphylococcus aureus strain Smith (tetracycline sensitive); assay: In vivo antibacterial evaluation, acute lethal infection in mice; conditions: 168 h, female mice CD-1, intraperitoneal challenge with S. aureus Smith, dosed subcutaneously or orally 30 minutes after infection, 7 day survival ratios
Procedure: In Vivo Antibacterial Evaluation (Table III)
The therapeutic effects of tetracyclines are determined against an acute lethal infection with Staphylococcus aureus strain Smith (tetracycline sensitive). Female, mice, strain CD-1 (Charles River Laboratories), 20±2 grams, are challenged by an intraperitoneal injection of sufficient bacteria (suspended in hog mucin) to kill non-treated controls within 24-48 hours. Antibacterial agents, contained in 0.5 ml of 0.2% aqueous agar, are administered subcutaneously or orally 30 minutes after infection. When an oral dosing schedule is used, animals are deprived of food for 5 hours before and 2 hours after infection. Five mice are treated at each dose level. The 7 day survival ratios from 3 separate tests are pooled for calculation of median effective dose (ED50).

[2] = system: S. aureus IVES 1983 (MP) (meth. resistant); assay: In vitro antibacterial evaluation, MIC by agar dilution; type: cell-based; conditions: Staphylococcus aureus
Procedure: (§1) Method for In Vitro Antibacterial Evaluation (Table I)
(§2) The minimum inhibitory concentration (MIC), the lowest concentration of the antibiotic which inhibits growth of the test organism, is determined by the agar dilution method using Muller-Hinton II agar (Baltimore Biological Laboratories). An inoculum density of 1-5×10^5 CFU/ml and an antibiotic concentration (32-≤0.015 μg/ml) is used. The plates are incubated for 18 hours at 35° C. in a forced air incubator. The test organisms comprise strains sensitive to tetracycline and genetically defined strains that are resistant to tetracycline, due to inability to bind bacterial ribosomes (tetM).

[3] = system: E. coli UBMS 88-2 (sensitive); assay: as above; type: cell-based; conditions: Escherichia coli
Procedure: as §1, §2

S. haemol. AVAH 88-3 = assay: as above; type: cell-based
Procedure: as §1, §2

S. faecal. ATCC 29212 = assay: as above; type: cell-based
Procedure: as §1, §2

E. coli ATCC 25922 = assay: as above; type: cell-based; conditions: Escherichia coli
Procedure: as §1, §2

[4] = system: E. coli UBMS 89-2 (sensitive); assay: as above; type: cell-based; conditions: Escherichia coli, Muller-Hinton II agar, 18 hours at 35° C.
Procedure: as §1, §2

[5] = system: S. aureus UBMS 90-3 (sensitive); assay: as above; type: cell-based; conditions: Staphylococcus aureus
Procedure: as §1, §2

Enteroc. spp. 12201 = assay: as above; type: cell-based
Procedure: as §1, §2

[6] = system: S. aureus SMITH (MP) (sensitive); assay: as above; type: cell-based; conditions: Staphylococcus aureus
Procedure: as §1, §2

[7] = system: S. aureus ATCC 29213 (sensitive); assay: as above; type: cell-based; conditions: Staphylococcus aureus
Procedure: as §1, §2

[8] = system: S. aureus IVES 2943 (meth. resistant); assay: as above; type: cell-based; conditions: Staphylococcus aureus, 18 h
Procedure: as §1, §2

[9] = system: S. aureus UBMS 88-4 (sensitive); assay: as above; type: cell-based; conditions: Staphylococcus aureus, 18 h
Procedure: as §1, §2

[10] = system: S. aureus UBMS 88-5 (tetM); assay: microbe, parasite or virus in culture; type: cell-based; conditions: Staphylococcus aureus, 18 h
Procedure: as §1, §2

[11] = system: S. aureus UBMS 88-7 (tetK); assay: microbe, parasite or virus in culture; type: cell-based; conditions: Staphylococcus aureus, 18 h
Procedure: as §1, §2

E. coli UBMS 88-1 (tetB) = assay: microbe, parasite or virus in culture; type: cell-based; conditions: Escherichia coli, 18 h
Procedure: as §1, §2

E. coli UBMS 89-1 (tetM) = assay: microbe, parasite or virus in culture; type: cell-based; conditions: Escherichia coli, 18 h
Procedure: as §1, §2

[12] = system: S. aureus UBMS 90-1 (tetM); assay: microbe, parasite or virus in culture; type: cell-based; conditions: Staphylococcus aureus, 18 h
Procedure: as §1, §2

[13] = system: S. aureus UBMS 90-2 (tetM); assay: microbe, parasite or virus in culture; type: cell-based; conditions: Staphylococcus aureus, 18 h
Procedure: as §1, §2

[14] = system: S30 extract from E. coli strain MRE 600 (tetracycline sensitive); assay: E. coli in vitro cell free protein translation system, Wild Type S30; type: biochemical; conditions: for % Inhibition Wild Type S30: 35S-methionine incorporation, 30 minutes at 37° C.
From the text: (§3) E. coli in Vitro protein Translation System (Table II)
(§4) An in vitro, cell free, protein translation system using extracts from E. coli strain MRE 600 (tetracycline sensitive) and a derivative of MRE 600 containing the tetM determinant has been developed based on literature methods J. M. Pratt, Coupled Transcription-translation in Prokaryotic Cell-free Systems, Transcription and Translation, a Practical Approach, (B. D. Hames and S. J. Higgins, eds) p. 179-209, IRL Press, Oxford-Washington, 1984!.
(§5) Using the system described above, the tetracycline compounds of the present invention are tested for their ability to inhibit protein synthesis in vitro. Briefly, each 10 μl reaction contains S30 extract (a whole extract) made from either tetracycline sensitive cells or an isogenic tetracycline resistant (tetM) strain, low molecular weight components necessary for transcription and translation (i.e., ATP and GTP), a mix of 19 amino acids (no methionine), ^35 S labeled methionine, DNA template (either pBR322 or pUC119), and either DMSO (control) or the novel tetracycline compound to be tested ("novel TC") dissolved in DMSO.
(§6) The reactions are incubated for 30 minutes at 37° C. Timing is initiated with the addition of the S30 extract, the last component to be added. After 30 minutes, 2.5 μl of the reaction is removed and mixed with 0.5 ml of 1N NaOH to destroy RNA and tRNA. Two to three ml of 25% trichloroacetic acid is added and the mixture incubated at room temperature for 15 minutes. The trichloroacetic acid precipitated material is collected on Whatman GF/C filters and washed with a solution of 10% trichloroacetic acid. The filters are dried and the retained radioactivity, representing incorporation of ^35 S-methionine into polypeptides, is counted using standard liquid scintillation methods.
(§7) The percent inhibition (P.I.) of protein synthesis is determined to be: [formula]

[15] = system: S30 extract from derivative of E. coli MRE 600 containing the tetM determinant; assay: E. coli in vitro cell free protein translation system, TetM S30; type: biochemical; conditions: for % Inhibition TetM S30: 35S-methionine incorporation, 30 minutes at 37° C.
From the text: as §3, §4, §5, §6, §7

[16] = agar dilution, Muller-Hinton II agar, 18 hours at 35° C., S. aureus UBMS 90-3 (sensitive), read-out: MIC
[17] = agar dilution, Muller-Hinton II agar, 18 hours at 35° C., S. aureus SMITH (MP) (sensitive), read-out: MIC
[18] = ATCC29213, agar dilution, Muller-Hinton II agar, 18 hours at 35° C., S. aureus ATCC 29213 (sensitive), read-out: MIC
[19] = agar dilution, Muller-Hinton II agar, 18 hours at 35° C., S. faecal. ATCC 29212, read-out: MIC

Structure (SMILES) | ED50 [1] | MIC ([2]; 18 h) | MIC ([3]; 18 h) | MIC (S. haemol. AVAH 88-3; 18 h) | MIC (S. faecal. ATCC 29212; 18 h) | MIC (E. coli ATCC 25922; ATCC25922, 18 h) | MIC [4] | MIC (Enteroc. spp. 12201; 18 h) | MIC [7, 18] | MIC [8] | MIC [9] | MIC [10] | MIC [11] | MIC (E. coli UBMS 88-1 (tetB)) | MIC (E. coli UBMS 89-1 (tetM)) | MIC [12] | MIC [13] | MIC ([5]; 18 h) | MIC ([6]; 18 h) | further results
CN(C)[C@@H]1C(O)=C(C(N)=O)C(=O)[C@@]2(O)C(O)=C3C(=O)c4c(cc(Cl)c(NC=O)c4O)CC3CC12 (some centres unmarked) [A HCL] | 4 to 8 mg/kg |  |  |  |  |  |  |  |  |  |  |  |  |  |  |  |  |  |  | 
CN(C)c1c(Cl)cc(O)c2c1CC1CC3[C@H](N(C)C)C(O)=C(C(N)=O)C(=O)[C@@]3(O)C(O)=C1C2=O (some centres unmarked) [B, 8-Chloro-4,7-bis(dimethylamino)-1,4,4a,5-5a,6,11,12a-octahydro-3,10,12,12a-tetrahydroxy-1,11-dioxo-2-naphthacenecarboxamide sulfate] | > 16 mg/kg | 1 µg/mL | 8 µg/mL | 0.25 µg/mL | 1 µg/mL | 8 µg/mL | 16 µg/mL | 1 µg/mL | ≤ 0.015 µg/mL | 1 µg/mL | 0.03 µg/mL | 0.5 µg/mL | 0.5 µg/mL | > 32 µg/mL | > 32 µg/mL | 0.05 µg/mL | 0.5 µg/mL |  |  | MIC [5, 16]: 0.06 µg/mL; MIC [6, 17]: 0.06 µg/mL
CN(C)c1c(Cl)c(NC=O)c(O)c2c1CC1CC3C(N(C)C)C(O)=C(C(N)=O)C(=O)C3(O)C(O)=C1C2=O.O=S(=O)(O)O (centres unmarked) [F, 8-Chloro-4,7-bis(dimethylamino)-9-(formylamino)-1,4,4a,5,5a,6,11,12a-octahydro-3,10,12,12a-tetrahydroxy-1,11-dioxo-2-naphthacenecarboxamide sulfate] |  | 8 µg/mL | 1 µg/mL | 0.12 µg/mL | 0.06 µg/mL | 0.25 µg/mL | 1 µg/mL | 0.5 µg/mL |  | 8 µg/mL | 0.12 µg/mL | 0.25 µg/mL | 4 µg/mL | > 32 µg/mL | 0.5 µg/mL | 0.5 µg/mL | 0.12 µg/mL | 0.06 µg/mL | 0.06 µg/mL | MIC ([7]; ATCC29213, 18 h): 0.06 µg/mL
CN(C)c1c(Cl)c(N)c(O)c2c1CC1CC3[C@H](N(C)C)C(O)=C(C(N)=O)C(=O)[C@@]3(O)C(O)=C1C2=O (some centres unmarked) [H, 9-Amino-8-chloro-4,7-(dimethylamino)-1,4-4a,5,5a,6,11,12a-octahydro-3,10,12,12a-tetrahydroxy-1,11-dioxo-2-naphthacenecarboxamide sulfate] | 4 to 8 mg/kg | 4 µg/mL |  | 0.12 µg/mL |  | 4 µg/mL | 16 µg/mL | 4 µg/mL | < 0.015 µg/mL | 1 µg/mL | 0.12 µg/mL | 1 µg/mL | 0.25 µg/mL | > 32 µg/mL |  | 2 µg/mL | 0.5 µg/mL | 0.12 µg/mL | 0.06 µg/mL | MIC ([3]; agar dilution, Muller-Hinton II agar, 18 hours at 35° C., E. coli UBMS 88-2 (sensitive), read-out: MIC): 8 µg/mL; MIC (S. faecal. ATCC 29212; [19]): 0.5 µg/mL; % Inhibition Wild Type S30 ([14]; Conc. 0.1 mg/ml): 52%; % Inhibition Wild Type S30 ([14]; Conc. 0.3 mg/ml): 62%; % Inhibition Wild Type S30 ([14]; Conc. 1.0 mg/ml): 57%; % Inhibition TetM S30 ([15]; Conc. 0.1 mg/ml): 19%; % Inhibition TetM S30 ([15]; Conc. 0.3 mg/ml): 21%; % Inhibition TetM S30 ([15]; Conc. 1.0 mg/ml): 29%
CN(C)[C@@H]1C(O)=C(C(N)=O)C(=O)[C@@]2(O)C(O)=C3C(=O)c4c(cc(Cl)c(NN)c4O)CC3CC12 (stereo partly drawn) [J, 4S-(4alpha, 12aalpha)!-8-Chloro-4-(dimethylamino)-9-hydrazino-1,4,4a,5,5a,6-11,12a-octahydro-3,10,12,12a-tetrahydroxy-1,11-dioxo-2-naphthacenecarboxamide monohydrochloride] | > 16 mg/kg |  | 2 µg/mL |  |  |  | 4 µg/mL |  | ≤ 0.015 µg/mL |  | 0.06 µg/mL | 0.5 µg/mL | 1 µg/mL | 32 µg/mL | 16 µg/mL | 0.5 µg/mL | 0.5 µg/mL |  |  | MIC ([2]; agar dilution, Muller-Hinton II agar, 18 hours at 35° C., S. aureus IVES 1983 (MP) (meth. resistant), read-out: MIC): 2 µg/mL; MIC (S. haemol. AVAH 88-3; agar dilution, Muller-Hinton II agar, 18 hours at 35° C., S. haemol. AVAH 88-3, read-out: MIC): 0.25 µg/mL; MIC (S. faecal. ATCC 29212; [19]): 0.5 µg/mL; MIC (E. coli ATCC 25922; ATCC25922, agar dilution, Muller-Hinton II agar, 18 hours at 35° C., E. coli ATCC 25922, read-out: MIC): 1 µg/mL; MIC [5, 16]: 0.03 µg/mL; MIC (Enteroc. spp. 12201; agar dilution, Muller-Hinton II agar, 18 hours at 35° C., Enteroc. spp. 12201, read-out: MIC): 0.05 µg/mL; MIC [6, 17]: 0.03 µg/mL
CN(C)[C@@H]1C(=O)C(C(N)=O)=C(O)[C@@]2(O)C(=O)C3=C(O)c4c(O)cccc4[C@@](C)(O)[C@H]3C[C@@H]12 [K, Tetracycline hydrochloride, reference compound] |  | > 32 µg/mL | 0.25 µg/mL | 1 µg/mL | 16 µg/mL | 0.5 µg/mL | 1 µg/mL | 32 µg/mL |  | > 32 µg/mL | 0.12 µg/mL | > 32 µg/mL | > 32 µg/mL | > 32 µg/mL | 16 µg/mL | > 32 µg/mL | 32 µg/mL | 0.06 µg/mL | 0.06 µg/mL | MIC ([7]; ATCC29213, 18 h): ≤ 0.015 µg/mL; inhibition of protein synthesis, in words ([14]; cell-free extracts from tetracycline susceptible strain MRE600): inhibited; inhibition of protein synthesis, in words ([15]; cell-free extracts from strain MRE600 (tetM)): resistant
CCN(CC)c1c(Cl)c(N)c(O)c2c1CC1CC3[C@H](N(C)C)C(O)=C(C(N)=O)C(=O)[C@@]3(O)C(O)=C1C2=O (some centres unmarked) [M] | > 16 mg/kg |  |  |  |  |  |  |  |  |  |  |  |  |  |  |  |  |  |  | 
